One block for each molecule: values may come before it.
Legend:
SMN complex [1] = target: T1, SMN complex (Homo sapiens, UniProt Q16637); assay: Magnetic beads snRNP assembly assay in vitro with cell extracts; format: biochemical; conditions: for IC50: extracts of untreated cells, read-out: IC50, inhibition of the activity of the SMN complex in vitro
T1 construct: HeLa cell extracts (containing the SMN complex and all the components required for Sm core assembly); endogenous in cells; host or cells: HeLa: S3 cytoplasmic or total extracts for in vitro reactions, HeLa PV total extracts for compound-treated cells
T1 sequence (Q16637 2-294 limits assumed): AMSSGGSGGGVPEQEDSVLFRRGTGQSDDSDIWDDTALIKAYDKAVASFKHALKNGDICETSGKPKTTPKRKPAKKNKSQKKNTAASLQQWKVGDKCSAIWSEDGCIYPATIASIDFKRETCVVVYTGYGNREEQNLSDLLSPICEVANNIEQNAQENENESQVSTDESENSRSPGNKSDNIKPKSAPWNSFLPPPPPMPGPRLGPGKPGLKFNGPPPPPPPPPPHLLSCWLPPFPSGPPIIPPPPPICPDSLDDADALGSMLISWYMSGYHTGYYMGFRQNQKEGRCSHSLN
T1 sequence (O14893 whole entry partner): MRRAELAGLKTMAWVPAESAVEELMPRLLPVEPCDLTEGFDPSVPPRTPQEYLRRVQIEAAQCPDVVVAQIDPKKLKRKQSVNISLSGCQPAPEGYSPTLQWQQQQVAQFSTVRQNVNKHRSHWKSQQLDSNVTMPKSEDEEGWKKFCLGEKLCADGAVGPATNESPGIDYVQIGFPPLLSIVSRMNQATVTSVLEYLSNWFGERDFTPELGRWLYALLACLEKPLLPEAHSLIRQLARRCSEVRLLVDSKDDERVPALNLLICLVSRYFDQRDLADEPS
Procedure: (§1) Magnetic beads snRNP assembly assay was carried out in the presence of increasing amounts of H2O2. IC50 was calculated from the dose-response curve. The error bars represent SDs from 3 independent measurements. (B) Effect of menadione on the activity of the SMN complex in vitro. The same experimental procedure was carried out as in (A), except that menadione was used instead. (C) Dose-dependent effect of menadione on the activity of the SMN complex in cells. HeLa cells were treated with menadione at the indicated concentrations or with DMSO control for 1 hour. The activity of the SMN complex in extracts from various treated cells was measured in comparison to DMSO control cell extract (100% activity) by magnetic beads snRNP assembly assay. The error bars represent SDs from 3 independent measurements. (D) Extracts from (C) mixed with sample buffer without (−DTT) or with (+DTT) reducing agent were resolved by SDS-PAGE and analyzed by Western blot of the entire membrane with anti-SMN antibody 62E7. The molecular mass markers in 41 kDa are indicated on the left. “redSMN” indicates monomer SMN migrating at normal molecular mass and “oxSMN” indicates disulfide-crosslinked SMN upon oxidation. (E) β-lapachone and menadione generate ROS in live cells. HeLa cells were incubated with ROS indicator dye H2DCFDA (10 μM) or without dye as a control for 30 minutes, and then treated with the compounds at the indicated concentrations or DMSO as a control. Fluorescence images were acquired 30 minutes after the treatment.
(A) Cell extracts treated with 20 μM β-lapachone, or 20 μM β-lapachone together with 20 μM DTT, or DMSO control were analyzed by non-reducing Western blot. The relative levels of monomer SMN (“redSMN”) were calculated as the percentage of that in DMSO control and shown by the blue bar. Assembly activities of the SMN complex were measured by magnetic beads snRNP assembly assay using the same set of treated extracts and shown by the red bar. The error bar represents SDs from 3 independent experiments. (B) The sulfhydryl modifying reagent iodoacetamide inhibits the activity of the SMN complex. In vitro assembly assays were performed in the presence of various concentrations of iodoacetamide. The activity of the SMN complex in the absence of iodoacetamide was set as 100% activity, and the relative activity at each iodoacetamide concentration was calculated in comparison and graphed. The error bars represent SDs from triplicate samples.
For quantitative in vitro assembly assays on magnetic beads, cytoplasmic extracts were prepared and used for assembly on biotin-labeled snRNAs using the standard reconstitution conditions in 96-well plates. Following the reactions, Y12 antibodies immobilized onto the magnetizable Dynabeads Protein A (Dynal Biotech ASA, Oslo, Norway) in 100 μl of RSB-500 buffer ([…]) containing 2 mg/ml heparin, 0.1% NP-40, and 0.2 U/.μl RNasin Plus RNase inhibitor (Promega, Madison, Wis.) were added to each well. Immunoprecipitations in the 96-well plates were carried out with gentle mixing at 750 rpm in a Thermomixer (Eppendorf, Germany) at 30° C. for 1 hour. The plates were subsequently transferred to a Kingfisher 96 magnetic particle processor (Thermo Labsystems, Vantaa, Finland) for automatic washing of the Dynabeads in each well with wash buffer (RSB-500, 0.1% NP-40) 5 times. After the last wash, beads bound to Y12 immunoprecipitated snRNPs were then resuspended in 120 μl of wash buffer containing 0.08 μg/ml horseradish peroxidase (HRP)-conjugated NeutrAvidin.TM. (Pierce, Rockford, Ill.). Following incubation at 30° C. for 1 hour with gentle mixing, the beads in each well were again washed five times with the Kingfisher 96 magnetic particle processor, and finally resuspended in 150 μl of SuperSignal ELISA Femto Substrate Working Solution (Pierce). […]

SMN complex [2] = target: T1, SMN complex; assay: Magnetic beads snRNP assembly assay on extracts from compound-treated HeLa cells; format: cell-based
Procedure: (§2) (B) Concentration-dependent inhibition of the activity of the SMN complex by b-lapachone in cells. HeLa cells were treated with various concentrations of β-lapachone or with DMSO (control) for 1 hour. The activity of the SMN complex in extracts from treated cells was measured using magnetic beads snRNP assembly assay and compared to that of DMSO-treated control cells (100% activity). IC50 was calculated from the dose-response graph. The error bars represent SDs from 3 independent measurements. […] Assembly reactions were performed using either cell extracts or purified native […] snRNP proteins lacking the SMN complex (Sm proteins). Both samples were adjusted to contain a similar amount of Sm proteins. Magnetic beads snRNP assembly assay were carried out with U4 or control U4DSm snRNA in the presence of either 20 or 100 μM β-lapachone or DMSO control. Sm core assembly on U4 snRNA in the presence of DMSO was considered 100% activity. The error bars represent SDs from 3 independent measurements.
In vitro transcription and labeling of RNAs was carried out using MEGAshortscript T7 transcription kit (Ambion) with the modification that 0.65 μM biotin-16-UTP (Roche) and 2.6 μM UTP were used in the reactions to produce biotinlabeled RNAs (Wan et al., 2005). Cell culture, drug treatment and preparation of cell extracts HeLa S3 cell pellets were purchased from National Cell Culture Center. Cytoplasmic extracts competent for snRNP assembly were prepared as described (Pellizzoni et al., 2002). Total cell extracts were made by resuspending cell pellets in reconstitution buffer ([…], 0.2 mM EDTA, 5% glycerol) containing 50 µg/ml digitonin (Calbiochem) and 1× Complete EDTA-free Protease Inhibitor Cocktail (Roche), followed by sonication. Nonidet P-40 (NP-40) was added to a final concentration of 0.01%, followed by centrifugation at 10,000 rpm for 15 minutes at 4° C. Glycerol was then added to the supernatant at a final concentration of 5%. For various drug treatments, two 10 cm plates of HeLa PV cells were treated with each drug at the indicated concentrations and times. Cells were harvested (˜90% confluent) and total cell extracts prepared using the aforementioned procedures. Protein concentrations of various extracts were determined using the Bradford protein assay (BioRad). All of the extracts for the same experiment were adjusted to the same final protein concentration
For quantitative in vitro assembly assays on magnetic beads, cytoplasmic extracts were prepared and used for assembly on biotin-labeled snRNAs using the standard reconstitution conditions in 96-well plates. […] The plates were transferred to a Wallac Victor2 multi-label plate reader (Perkin-Elmer, Wellesley, Mass.) for luminescence measurements at 495 nm. […]

ROS in HeLa cells = assay: ROS detection in live HeLa cells with H2DCFDA dye; format: cell-based, human; conditions: for ROS generation in live cells (H2DCFDA fluorescence): 10 μM H2DCFDA, images 30 minutes after treatment
Procedure: as §1
Additional direct evidence for the ROS-generating activity of the compounds in live cells was obtained by staining cells with 2′,7′-dichlorodihydrofluorescein diacetate (H2DCFDA), a nonfluorescent dye that becomes fluorescent upon exposure to ROS. […] A significant level of ROS was apparent at 0.5 μM β-lapachone and increased proportionally with increasing b-lapachone concentrations.

Sm proteins = tested on: T2, Sm proteins; assay: Sm core assembly from purified native snRNP proteins lacking the SMN complex; format: biochemical, human; conditions: U4 snRNA, 20 or 100 μM
T2 construct: Native, RNA-free total snRNP proteins (TPs) were prepared from HeLa S3 cells; endogenous in cells; host or cells: HeLa S3 cells (pellets from National Cell Culture Center); proteins purified in house by the method of Sumpter et al., 1992
Procedure: as §2
Native, RNA-free total snRNP proteins (TPs) were prepared from HeLa S3 cells (National Cell Culture Center) as described previously (Sumpter et al., 1992). […] The other half of the samples were immunoprecipitated with anti-Sm monoclonal antibody (Y12), and the immunoprecipitated RNAs were isolated and analyzed by electrophoresis on […] urea/8% polyacrylamide gels. […]

[3] = tested on: transfected luciferase reporter; assay: Transcription and translation of a transfected luciferase reporter in treated cells; format: cell-based
SMN protein = assay: Quantitative non-reducing Western blot of SMN in extracts of treated HeLa cells; format: cell-based, human; conditions: 5 μM for 3 hours, prepared without DTT
Procedure: (B) HeLa total cell extracts prepared from cells treated for 3 hours with 5 μM β-lapachone or DMSO control were resolved by SDS-PAGE and analyzed by quantitative Western blotting, using JBP1 and Magoh as loading controls. The extracts were prepared and mixed with sample buffer without reducing agent. The membrane was cut into strips for the probing of each protein at the corresponding molecular mass.
For quantitative Western blot, cell extracts containing 20 g of total proteins were mixed with NuPAGE LDS sample buffer (Invitrogen) with or without reducing agent (Invitrogen), boiled for 5 minutes, and then separated on NuPAGE 4-12% Bis-Tris gels (Invitrogen) and transferred to nitrocellulose membranes. […] Mouse monoclonal antibodies, anti-SMN (62E7), anti-Gemin3 (12H12), anti-Gemin4 (17D10), anti-Gemin5 (10G11), anti-JBP1 (6G8), anti-Magoh (18G12) and anti-Sm (Y12), were used as described previously (Battle et al., 2006b; Lerner et al., 1981; Wan et al., 2005). The IRDye800 anti-mouse IgG secondary antibody (Rockland) was used at 1:5000.
To test this, extracts from b-lapachone-treated cells (at 5 μM for 3 hours) or DMSO-treated control cells were prepared in gel electrophoresis sample buffer without the reducing agent dithiothreitol (DTT) to preserve potential disulfides, resolved by SDS-PAGE, and analyzed by quantitative Western blots. […]

SMN = assay: Indirect immunofluorescence of SMN (2B1) and snRNPs (Y12) in HeLa PV cells; format: cell-based, human; conditions: 5 μM for 3 hours vs DMSO control

Compound: O=C1C(=O)c2ccccc2-c2ccccc21 [9,10-phenanthrenequinone]
inhibition of the SMN complex / assembly in cell extracts (in words) (SMN complex [1]; in vitro): strongly inhibit

Compound: NC(=O)CI [iodoacetamide]
inhibition of the SMN complex / assembly in cell extracts (in words) (SMN complex [1]; in vitro): inhibits

Compound: CC1=CC(=O)c2ccccc2C1=O [menadione, 2-methyl-1,4-napthoquinone]
inhibition of SMN complex activity in cells (SMN complex [2]; HeLa cells treated for 1 hour): dose-dependent inhibition | IC50 (SMN complex [1]): 25 µM | ROS generation in live cells (H2DCFDA fluorescence) (ROS in HeLa cells): Dose-dependent fluorescence

Compound: CC1(C)CCC2=C(O1)C(=O)c1ccccc1C2=O [α-lapachone]
inhibition of the SMN complex / assembly in cell extracts (in words) (SMN complex [1]; in vitro): does not inhibit

More lines, main results first:

prevention of the inhibitory effect of b-lapachone on SMN complex activity (SMN complex [1]; 20 μM b-lapachone with 20 μM DTT): completely neutralized
Compound: O[C@H](CS)[C@H](O)CS (racemic) [DTT, dithiothreitol]

IC50, inhibition of the activity of the SMN complex in vitro (SMN complex [1]; in vitro, value in words): low millimolar range
Compound: OO [H2O2, hydrogen peroxide]

prevention of the inhibition of b-lapachone, menadione and H2O2 (SMN complex [1]; in vitro assembly reactions): completely prevented
Compound: CC(=O)N[C@@H](CS)C(=O)O [N-acetyl-L-cysteine]

inhibition of the SMN complex / assembly in cell extracts (in words) (SMN complex [1]; in vitro): strongly inhibit
Compound: O=C1C(=O)C(Cl)=C(Cl)C(Cl)=C1Cl [tetrachloro-1,2-benzoquinone]

IC50 (SMN complex [2]; HeLa cells treated for 1 hour, read-out: IC50, inhibition of the activity of the SMN complex in treated cells): 450 nM | inhibition of snRNP assembly (SMN complex [2]; within 30 minutes of treatment): > 80% | IC50 (SMN complex [1]): ~30 µM | inhibition of the SMN complex / assembly in cell extracts (in words) (SMN complex [1]; in vitro): inhibited assembly in the cell extracts | effect on Sm core formation from the purified snRNP proteins (Sm proteins): no effect
Compound: CC1(C)CCC2=C(O1)c1ccccc1C(=O)C2=O [β-lapachone, 3,4-dihydro-2,2-dimethyl-2H-naphthol[1,2-b]pyran-5,6-dione]
inhibition of snRNP assembly activity (SMN complex [2]; extracts from cells treated for 6 hours with subtoxic concentration): about 90% | inhibition of transcription and translation of a transfected luciferase reporter [3]: did not significantly inhibit | decrease of intensity of the SMN band (monomer) compared to DMSO controls (SMN protein): ~60% | SMN signal intensity or localization (SMN): no detectable difference | ROS generation in live cells (H2DCFDA fluorescence) (ROS in HeLa cells): Dose-dependent fluorescence | concentration at which a significant level of ROS was apparent (ROS in HeLa cells; HeLa cells, H2DCFDA): 0.5 µM

From patent US20100234402A1, “METHODS AND COMPOSITIONS FOR TREATING SPINAL MUSCULAR ATROPHY” (priority 2007, published 2010)
